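In this assay, cells in 96-well plates receive the compound at five concentrations for 48 hours. Endpoints are linearly interpolated between the surrounding concentrations. The concentration for full growth arrest is given as TGI.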
How the values were obtained:
Experiment in all cases: NCI-60 cell line screen, 48 h
[1] = system: 786-0 renal
[2] = system: A498 renal
[3] = system: A549 NSCLC
[4] = system: ACHN renal
[5] = system: BT-549 breast
[6] = system: CAKI-1 renal
[7] = system: COLO 205 colon
[8] = system: DU-145 prostate
[9] = system: EKVX NSCLC
[10] = system: HCC-2998 colon
[11] = system: HCT-116 colon
[12] = system: HCT-15 colon
[13] = system: HL-60(TB) leukemia
[14] = system: HOP-62 NSCLC
[15] = system: HOP-92 NSCLC
[16] = system: HS 578T breast
[17] = system: HT29 colon
[18] = system: IGROV1 ovarian
[19] = system: K-562 leukemia
[20] = system: KM12 colon
[21] = system: LOX IMVI melanoma
[22] = system: M14 melanoma
[23] = system: MALME-3M melanoma
[24] = system: MCF7 breast
[25] = system: MDA-MB-231 breast
[26] = system: MDA-MB-435
[27] = system: MDA-N
[28] = system: MOLT-4 leukemia
[29] = system: NCI-H226 lung
[30] = system: NCI-H23 lung
[31] = system: NCI-H460 lung
[32] = system: NCI-H522 lung
[33] = system: NCI/ADR-RES ovarian
[34] = system: OVCAR-3 ovarian
[35] = system: OVCAR-4 ovarian
[36] = system: OVCAR-5 ovarian
[37] = system: OVCAR-8 ovarian
[38] = system: PC-3 prostate
[39] = system: RPMI-8226 leukemia
[40] = system: RXF 393 renal
[41] = system: SF-268 CNS
[42] = system: SF-295 CNS
[43] = system: SF-539 CNS
[44] = system: SK-MEL-2 melanoma
[45] = system: SK-MEL-28 melanoma
[46] = system: SK-MEL-5 melanoma
[47] = system: SK-OV-3 ovarian
[48] = system: SN12C renal
[49] = system: SNB-19 CNS
[50] = system: SNB-75 CNS
[51] = system: SR leukemia
[52] = system: SW-620 colon
[53] = system: T-47D breast
[54] = system: TK-10 renal
[55] = system: U251 CNS
[56] = system: UACC-257 melanoma
[57] = system: UACC-62 melanoma
[58] = system: CCRF-CEM leukemia
[59] = system: UO-31 renal

`CCCCCC(CO)C(O)(C(F)(F)F)C(F)(F)F` (centres undefined) was tested, and the TGI [1] was over 10 µM, the TGI [2] was over 10 µM and the TGI [3] was over 10 µM. For the same compound, the TGI [4] was over 10 µM, the TGI [5] was over 10 µM and the TGI [6] was over 10 µM. It also gave a TGI [7] of over 10 µM, a TGI [8] of over 10 µM and a TGI [9] of over 10 µM. The TGI [10] was over 10 µM, the TGI [11] was over 10 µM and the TGI [12] was over 10 µM. It also gave a TGI [13] of over 10 µM, a TGI [14] of over 10 µM and a TGI [15] of over 10 µM. For the same compound, the TGI [16] was over 10 µM, the TGI [17] was over 10 µM and the TGI [18] was over 10 µM. For the same compound, the TGI [19] was over 10 µM, the TGI [20] was over 10 µM and the TGI [21] was over 10 µM. The TGI [22] was over 10 µM, the TGI [23] was over 10 µM and the TGI [24] was over 10 µM. The TGI [25] was over 10 µM, the TGI [26] was over 10 µM and the TGI [27] was over 10 µM. It also gave a TGI [28] of over 10 µM, a TGI [29] of over 10 µM and a TGI [30] of over 10 µM. The TGI [31] was over 10 µM, the TGI [32] was over 10 µM and the TGI [33] was over 10 µM. It also gave a TGI [34] of over 10 µM, a TGI [35] of over 10 µM and a TGI [36] of over 10 µM. For the same compound, the TGI [37] was over 10 µM, the TGI [38] was over 10 µM and the TGI [39] was over 10 µM. The TGI [40] was over 10 µM, the TGI [41] was over 10 µM and the TGI [42] was over 10 µM. It also gave a TGI [43] of over 10 µM, a TGI [44] of over 10 µM and a TGI [45] of over 10 µM. The TGI [46] was over 10 µM, the TGI [47] was over 10 µM and the TGI [48] was over 10 µM. For the same compound, the TGI [49] was over 10 µM, the TGI [50] was over 10 µM and the TGI [51] was over 10 µM. For the same compound, the TGI [52] was over 10 µM, the TGI [53] was over 10 µM and the TGI [54] was over 10 µM. The TGI [55] was over 10 µM, the TGI [56] was over 10 µM and the TGI [57] was over 10 µM.

Work on `COC1=C(N2CC2)C(=O)c2nc3n(c2C1=O)CCC3` yielded a TGI [1] of 1.03 µM, a TGI [2] of 2.86 µM and a TGI [3] of 6.47 µM. It also gave a TGI [4] of 0.851 µM, a TGI [5] of 2.39 µM and a TGI [58] of 1.33 µM. For the same compound, the TGI [7] was 2.13 µM, the TGI [8] was 1.36 µM and the TGI [10] was 2.44 µM. It also gave a TGI [11] of 1.93 µM, a TGI [12] of 1.55 µM and a TGI [13] of 0.595 µM. For the same compound, the TGI [14] was 2.34 µM, the TGI [15] was 7.74 µM and the TGI [16] was 31.3 µM. For the same compound, the TGI [17] was 1.57 µM, the TGI [18] was 3.15 µM and the TGI [20] was 3.11 µM. The TGI [21] was 2.15 µM, the TGI [22] was 0.619 µM and the TGI [23] was 0.827 µM. The TGI [24] was 4.08 µM, the TGI [25] was 6.28 µM and the TGI [26] was 3.32 µM. The TGI [27] was 2.89 µM, the TGI [28] was 2.41 µM and the TGI [29] was 4.76 µM. It also gave a TGI [30] of 2.34 µM, a TGI [31] of 2.42 µM and a TGI [32] of 0.385 µM. For the same compound, the TGI [33] was 3.53 µM, the TGI [34] was 10.7 µM and the TGI [35] was 0.526 µM. It also gave a TGI [36] of 3.46 µM, a TGI [37] of 4.7 µM and a TGI [38] of 5.27 µM. It also gave a TGI [39] of 0.336 µM, a TGI [40] of 0.261 µM and a TGI [41] of 5.23 µM. The TGI [42] was 2.07 µM, the TGI [43] was 7.79 µM and the TGI [45] was 12.2 µM. The TGI [46] was 2.56 µM, the TGI [47] was 3.04 µM and the TGI [48] was 2.95 µM. It also gave a TGI [49] of 2.92 µM, a TGI [50] of 3.57 µM and a TGI [51] of 16.9 µM. It also gave a TGI [52] of 2.19 µM, a TGI [53] of 4.15 µM and a TGI [54] of 7.08 µM. For the same compound, the TGI [55] was 2.86 µM and the TGI [57] was 3.12 µM.

`O=c1c2cc([N+](=O)[O-])ccc2n2n1Cc1ccccc1C2` showed a TGI [1] of over 100 µM, a TGI [2] of over 100 µM and a TGI [3] of over 100 µM. For the same compound, the TGI [4] was over 100 µM, the TGI [5] was over 100 µM and the TGI [6] was over 100 µM. The TGI [58] was over 100 µM, the TGI [7] was over 100 µM and the TGI [8] was over 100 µM. It also gave a TGI [9] of over 100 µM, a TGI [10] of over 100 µM and a TGI [11] of over 100 µM. For the same compound, the TGI [12] was over 100 µM, the TGI [13] was over 100 µM and the TGI [14] was over 100 µM. It also gave a TGI [15] of over 100 µM, a TGI [16] of over 100 µM and a TGI [17] of over 100 µM. It also gave a TGI [18] of over 100 µM, a TGI [19] of over 100 µM and a TGI [20] of over 100 µM. It also gave a TGI [21] of over 100 µM, a TGI [23] of over 100 µM and a TGI [24] of over 100 µM. It also gave a TGI [25] of over 100 µM, a TGI [26] of over 100 µM and a TGI [27] of over 100 µM. It also gave a TGI [28] of over 100 µM, a TGI [29] of over 100 µM and a TGI [30] of over 100 µM. The TGI [31] was over 100 µM, the TGI [32] was over 100 µM and the TGI [33] was over 100 µM. The TGI [34] was over 100 µM, the TGI [35] was over 100 µM and the TGI [37] was over 100 µM. It also gave a TGI [38] of over 100 µM, a TGI [39] of over 100 µM and a TGI [40] of over 100 µM. It also gave a TGI [41] of over 100 µM, a TGI [42] of over 100 µM and a TGI [43] of over 100 µM. For the same compound, the TGI [45] was over 100 µM, the TGI [46] was over 100 µM and the TGI [47] was over 100 µM. It also gave a TGI [48] of over 100 µM, a TGI [49] of over 100 µM and a TGI [50] of over 100 µM. For the same compound, the TGI [51] was over 100 µM, the TGI [52] was over 100 µM and the TGI [53] was over 100 µM. It also gave a TGI [54] of over 100 µM, a TGI [55] of over 100 µM and a TGI [56] of over 100 µM. For the same compound, the TGI [57] was over 100 µM and the TGI [59] was over 100 µM.

`COc1cc(C(c2cc3c(cc2O)OCO3)N2CCCCC2)cc(OC)c1OC` (centres undefined) gave a TGI [1] of 12.9 µM, a TGI [2] of 35.5 µM and a TGI [3] of 45.8 µM. For the same compound, the TGI [4] was 31.1 µM, the TGI [5] was 24.4 µM and the TGI [6] was 27.6 µM. For the same compound, the TGI [58] was 19.2 µM, the TGI [7] was 26.6 µM and the TGI [8] was 35.6 µM. The TGI [9] was 39.5 µM, the TGI [10] was 39 µM and the TGI [11] was 30.4 µM. It also gave a TGI [12] of 30.8 µM, a TGI [13] of 4.16 µM and a TGI [14] of over 70.9 µM. It also gave a TGI [15] of 23.1 µM, a TGI [16] of 43.5 µM and a TGI [17] of 33.3 µM. It also gave a TGI [18] of 32.4 µM, a TGI [19] of over 21.3 µM and a TGI [20] of 34 µM. It also gave a TGI [21] of 28.4 µM, a TGI [22] of 18.5 µM and a TGI [23] of 26.1 µM. For the same compound, the TGI [24] was 29.3 µM, the TGI [25] was 29.3 µM and the TGI [26] was 16.8 µM. For the same compound, the TGI [27] was 19.8 µM, the TGI [29] was 41.6 µM and the TGI [30] was 31.8 µM. For the same compound, the TGI [31] was 45.8 µM, the TGI [32] was 26.7 µM and the TGI [33] was 39.2 µM. The TGI [34] was 26.9 µM, the TGI [35] was 25.2 µM and the TGI [36] was 32.2 µM. The TGI [37] was 28.1 µM, the TGI [38] was 30.6 µM and the TGI [39] was over 26.9 µM. It also gave a TGI [40] of 27.6 µM, a TGI [41] of 31.5 µM and a TGI [42] of over 100 µM. It also gave a TGI [43] of 33.9 µM, a TGI [44] of 32.9 µM and a TGI [45] of 32 µM. It also gave a TGI [46] of 34.6 µM, a TGI [47] of 56.2 µM and a TGI [48] of 25.1 µM. It also gave a TGI [49] of 46.9 µM, a TGI [50] of 33.5 µM and a TGI [51] of over 23.5 µM. For the same compound, the TGI [52] was 12 µM, the TGI [53] was 47.8 µM and the TGI [54] was 31.2 µM. The TGI [55] was 30.2 µM, the TGI [56] was 25.7 µM and the TGI [57] was 30.6 µM. For the same compound, the TGI [59] was 28.3 µM.
